This is an account of results in US8637563B2, “Non-peptide thrombopoietin receptor agonist in the treatment of cancer and pre-cancerous syndromes” (GlaxoSmithKline LLC, priority 2007, dated 2014).

≈ marks a conversion by molar mass, not a printed value.

Format in all cases: cell-based
The test system of one test is EKVX (NSCLC). As to the kind of experiment: Solid Tumor Cell Line Proliferation Assay, EKVX. The note with it: Homo sapiens, 72 hr, Cell Titer Glo. As for the experimental part:
(§1) Cells in log phase growth were seeded in a 96-well plate at 2500 cells/well in 50 uL medium and incubated at 37° C., 5% CO2 overnight. Compound A was diluted in medium and added at 0.1, 0.4, 1, 4, 10 and 40 ug/mL. Following a 72 hr incubation at 37° C., 5% CO2. The CellTiter-Glo Luminescent Cell Viability Assay (ProMega Corp) was performed according to the manufacturer's instructions. Briefly following a 30 min room temperature incubation 100 uL CELLTiter Glo reagent was added to each well and mixed for 2 minutes. Luminescence was recorded following a 10 minute room temperature incubation using a PerkinElmer Microbeta luminescence counter. IC50 was determined by EXCel Fit 4.2.1.

Test [1] has as its system RPMI-8226 Plasmacytoma cells. The test is described as follows: Cancer Proliferation Assay (3H-thymidine uptake), RPMI-8226. The settings on record: Homo sapiens; RPMI-8226, 3 days, 3H-TdR uptake. As for the experimental part:
(§2) Flat-bottom 96-well microtiter tissue culture plates (Costar, Cambridge, Mass.) were used for the assay. Cultures were performed in replicates of 4 wells; each well contained 1×10^4 cells. Six concentrations of Compound A (ranging from 40 μg/mL to 100 ng/mL) were tested in the absence and presence of 10 ng/mL G-CSF, 100 ng/mL of TPO or 5 U/mL of EPO. Cells were also tested in medium alone, G-CSF alone, TPO alone, or EPO alone to establish 100% of control values. The final volume in each well was 200 μL. Plates were placed in a humidified 5% CO2 incubator at 37° C. for 3 days. Proliferation was measured by the uptake of tritiated thymidine (^3H-TdR) by pulsing wells with 1 μCi of ^3H-TdR for the final 18 hours of incubation, harvesting the plate on a Brandel 96-well cell harvester (Gaithersburg, Md.) and measuring radioactivity on the filter mats in a Wallac 1450 Microbeta TriLux scintillation counter (Turku, Finland). The effect of Compound A was determined by comparing the results of cells treated with test compound with control cells (100% of control).

The next test concerns HOP-62 (NSCLC). The test is described as follows: Solid Tumor Cell Line Proliferation Assay, HOP-62. The note with it: Homo sapiens; HOP-62, 72 hr, Cell Titer Glo. As for the experimental part:
as §1

Test [2] has as its system HepG2 (Hepatocellular carcinoma). The test is described as follows: Solid Tumor Cell Line Proliferation Assay, HepG2. The settings on record: Homo sapiens; HepG2, 72 hr, Cell Titer Glo. (In general: ATP-based viability assays read luminescence as a measure of living cells.)
Experimental: Cells in log phase growth were seeded in a 96-well plate at 2500 cells/well in 50 uL medium and incubated at 37° C., 5% CO2 overnight. […] Following a 72 hr incubation at 37° C., 5% CO2. The CellTiter-Glo Luminescent Cell Viability Assay (ProMega Corp) was performed according to the manufacturer's instructions. Briefly following a 30 min room temperature incubation 100 uL CELLTiter Glo reagent was added to each well and mixed for 2 minutes. Luminescence was recorded following a 10 minute room temperature incubation using a PerkinElmer Microbeta luminescence counter. IC50 was determined by EXCel Fit 4.2.1.
In test [3] the test system is MOLT-4 Acute Lymphoblastic T cell leukemia cells. The test is described as follows: Cancer Proliferation Assay (3H-thymidine uptake), MOLT-4. The note with it: Homo sapiens; MOLT-4, 3 days, 3H-TdR uptake. As for the experimental part:
as §2

The test system of test [4] is CCRF-CEM Lymphoblastic T cell leukemia cells. As to the kind of experiment: Cancer Proliferation Assay (3H-thymidine uptake), CCRF-CEM. The note with it: Homo sapiens, 3 days, 3H-TdR uptake. As for the experimental part:
as §2

The next test has as its system NCI-H23 (NSCLC). As to the kind of experiment: Solid Tumor Cell Line Proliferation Assay, NCI-H23. The note with it: Homo sapiens; NCI-H23, 72 hr, Cell Titer Glo. As for the experimental part: as §1
Test [5] has as its system K562 Chronic Myelogenous leukemia cells. The test is described as follows: Cancer Proliferation Assay (3H-thymidine uptake), K562. The settings on record: Homo sapiens; K562, 3 days, 3H-TdR uptake. As for the experimental part: as §2
Another test has as its system NCI-H322M (NSCLC). The test is described as follows: Solid Tumor Cell Line Proliferation Assay, NCI-H322M. The note with it: Homo sapiens, 72 hr, Cell Titer Glo. As for the experimental part:
as §1

The test system of another test is HOP-92 (NSCLC). The test is described as follows: Solid Tumor Cell Line Proliferation Assay, HOP-92. The note with it: Homo sapiens; HOP-92, 72 hr, Cell Titer Glo. As for the experimental part: as §1
For another test, the system named is NCI-H226 (NSCLC). As to the kind of experiment: Solid Tumor Cell Line Proliferation Assay, NCI-H226. The note with it: Homo sapiens; NCI-H226, 72 hr, Cell Titer Glo. As for the experimental part:
as §1

Another test concerns A549 (NSCLC). The test is described as follows: Solid Tumor Cell Line Proliferation Assay, A549. The note with it: Homo sapiens; A549, 72 hr, Cell Titer Glo. As for the experimental part:
as §1

Test [6] deals with SR Immunoblastic Large Cell Leukemia cells. The test is described as follows: Cancer Proliferation Assay (3H-thymidine uptake), SR. The note with it: 3 days, 3H-TdR uptake. As for the experimental part:
as §2

Test [7] concerns Akt (Ser473) activation in washed human platelets. The test is described as follows: Activation of Akt in human platelets. The settings on record: TPO 100 ng/mL; for Akt activation (phosphorylation), agent alone: 15 minutes alone, Compound A (SB) 10 mM, phosphorylation-specific antibodies, Blot 1. As for the experimental part:
Washed human platelets from healthy volunteers were treated with vehicle (V) [0.33% DMSO], 100 ng/mL TPO [recombinant human thrombopoietin obtained from R&D Systems, Inc., Minneapolis, Minn., USA, or SB (SB=Compound A in Blot 1) (10 mM) for 15 minutes alone, or 13 minutes alone followed by 2 minutes with 1 mM ADP (+ADP). Protein extracts were probed for Akt (Ser473) activation. Results are representative of 3 individual experiments.
Compound A was compared to TPO in human platelets through the examination of a signal transduction pathway known to be activated through TPOR [TPO receptor] stimulation; specifically, Pi3K/Akt pathway activation [Chen, J., et al., Blood, 86, 4054-4062 (1995); Kojima, H., et al., Thrombosis & Haemostassis, 74, 1541-1545 (1995); Ezumi, Y., et al., FEBS Letters, 374, 48-52 (1995)].

In another test the test system is NCI-H522 (NSCLC). The test is described as follows: Solid Tumor Cell Line Proliferation Assay, NCI-H522. The settings on record: Homo sapiens; NCI-H522, 72 hr, Cell Titer Glo. As for the experimental part: as §1
The test system of another test is NCI-H460 (NSCLC). As to the kind of experiment: Solid Tumor Cell Line Proliferation Assay, NCI-H460. The settings on record: Homo sapiens; NCI-H460, 72 hr, Cell Titer Glo. As for the experimental part:
as §1

The next test relates to HepG2 cells. The test is described as follows: Liver Cancer Assay (CellTiter Glo). The settings on record: Homo sapiens, HepG2, 72 hours, n=4 wells, read-out: IC50, decrease in the number of viable cells. As for the experimental part:
HepG2 is a human hepatocellular carcinoma cell line. Active cell determinations were performed on HepG2 cells by plating 2×10^4 cells/mL in 96-well plates in culture medium containing 10% FBS and incubating overnight in 5% CO2 at 37°. Cells were then treated with Compound A at 0, 0.1, 0.4, 1, 4, 10, 40 ug/mL and incubated for 72 hours. Cell proliferation was measured using the CellTiter Glo (Promega) reagent according to the manufacturer's protocol. Data is the mean of n=4 wells reported as the percent of the control (0 ug/mL of Compound A). Compound A induced a decrease in the number of viable cells with an IC50 of approximately 6 ug/mL.

On to `CC1=NN(c2ccc(C)c(C)c2)C(=O)/C1=N\Nc1cccc(-c2cccc(C(=O)O)c2)c1O` [Compound A, 3′-[(2Z)-[1-(3,4-dimethylphenyl)-1,5-dihydro-3-methyl-5-oxo-4H-pyrazol-4-ylidene]hydrazino]-2′-hydroxy-[1,1′-biphenyl]-3-carboxylic acid], for which the IC50 – broadly, the point on the concentration scale where inhibition reaches its midpoint – is 12.7 µg/mL (≈ 28.7 µM) in the test with EKVX (NSCLC); 5.9 µg/mL (≈ 13.3 µM) in test [1]; 10.6 µg/mL (≈ 24 µM) in the test with HOP-62 (NSCLC); 5.61 µg/mL (≈ 12.7 µM) in test [2]; 0.56 µg/mL (≈ 1.27 µM) in test [3]; 0.74 µg/mL (≈ 1.67 µM) in [4]. Besides, the IC50 with NCI-H23 (NSCLC) worked out at 13.9 µg/mL (≈ 31.4 µM); in test [5] it was 1.8 µg/mL (≈ 4.07 µM); with NCI-H322M (NSCLC) it was 8.3 µg/mL (≈ 18.8 µM); in the test on HOP-92 (NSCLC) it was 13.5 µg/mL (≈ 30.5 µM); in the test on NCI-H226 (NSCLC), 11 µg/mL (≈ 24.9 µM); with A549 (NSCLC), 9.1 µg/mL (≈ 20.6 µM). Also, the IC50 in [6] is 0.77 µg/mL (≈ 1.74 µM); in the test with NCI-H522 (NSCLC), 5.9 µg/mL (≈ 13.3 µM); in the test with NCI-H460 (NSCLC), 5.7 µg/mL (≈ 12.9 µM); in the test with HepG2 cells it was approximately 6 µg/mL (≈ 13.6 µM). Also, the “Akt activation (phosphorylation), agent alone” value (shortened to “Akt activation … agent alone”) in [7] is listed as “no activation was observed”.
“TPO: recombinant human thrombopoietin obtained from R&D Systems, Inc.”: the “Akt activation in combination with ADP (preincubation with agent)” value in [7] (13 minutes alone followed by 2 minutes with ADP, Compound A 10 mM) is reported as “significant enhancement of activation of Akt”. In addition, the “Akt activation … agent alone” value in test [7] is recorded as “significant Akt activation”.
Consider `Nc1ncnc2c1ncn2[C@@H]1O[C@H](COP(=O)(O)OP(=O)(O)O)[C@@H](O)[C@H]1O` [ADP, reference compound], for which the “Akt activation … agent alone” value in [7] was “no activation observed”.
